A value given as a limit tells only on which side of the number the result lay.

By pKb is commonly meant the Kb on a negative log10 scale, so that one unit is a factor of ten. For orientation: Ki means a measure of affinity in units of concentration, obtained from inhibition or displacement. A higher Ki goes with weaker binding.

The target in the first experiment is T1, C-X-C chemokine receptor type 3 (Homo sapiens) (UniProt P49682).
T1 sequence (whole entry): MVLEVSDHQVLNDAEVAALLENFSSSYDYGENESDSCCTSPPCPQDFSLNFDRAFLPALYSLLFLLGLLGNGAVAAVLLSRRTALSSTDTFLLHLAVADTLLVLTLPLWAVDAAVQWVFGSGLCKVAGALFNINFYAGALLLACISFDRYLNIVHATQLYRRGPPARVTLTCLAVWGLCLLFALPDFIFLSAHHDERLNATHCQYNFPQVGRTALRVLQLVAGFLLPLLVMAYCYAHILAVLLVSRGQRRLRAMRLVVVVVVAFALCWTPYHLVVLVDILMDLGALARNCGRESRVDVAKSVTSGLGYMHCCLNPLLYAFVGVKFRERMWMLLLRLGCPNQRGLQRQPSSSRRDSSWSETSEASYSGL
In words: Antagonist activity at human CXCR3 expressed in HEK293T cells coexpressing Galphaqi5 assessed as inhibition of CXCL10-induced [3H]inositol phosphate levels by liquid scintillation counting. It counts as functional, cell-based. The note with it: HEK-293T.
As to `CC1(C)[C@@H]2CC[C@@]1(C)[C@H](NC1CCN(Cc3ccc(Cl)cc3F)CC1)C2` (relative stereo), the pKb was 5.7.
Take `Fc1cc(Cl)ccc1CN1CCC(NC2C3CC4CC(C3)CC2C4)CC1` (stereo unspecified): the pKb is 6.1.

The target of the next experiment is T2, C-X-C chemokine receptor type 3 (Homo sapiens, UniProt P49682).
T2 sequence (P49682 whole entry): T1 sequence (whole entry)
In words: Displacement of [125I]CXCL10 from human CXCR3 expressed in HEK293T cells. It counts as cell-based, HEK-293T.
Conditions: not given
A general note: Loss of bound radioactivity is the signal in a displacement assay; it reports binding, not function.
For the molecule `Fc1cc(Cl)ccc1CNC1CCN(C2C3CC4CC(C3)CC2C4)CC1` (stereo unspecified), the Ki is 3980 nM.
Still for that read-out and setting: with `CC1(C)[C@@H]2CC[C@@]1(C)[C@H](NC1CCN(Cc3ccc(Cl)cc3F)CC1)C2` (relative stereo) the figure was 398 nM; with `CC1(C)[C@@H]2CC[C@@]1(C)[C@H](NC1CCN(Cc3ccc(N)cc3)CC1)C2` (relative stereo), 6310 nM; with `CN1C2CCC1CC(NC1CCN(Cc3ccc(Cl)cc3F)CC1)C2` (mixture of isomers), greater than 10000 nM.
Still for that read-out and setting: next, `Fc1cc(Cl)ccc1CN1CCC(NC2C3CC4CC(C3)CC2C4)CC1` (stereo unspecified): 158 nM.
The same measure, in the same setting: next, `CC1(C)[C@@H]2CC[C@@]1(C)[C@H](NC1CCN(Cc3ccccn3)CC1)C2` (relative stereo): 7940 nM; `Fc1cc(Cl)ccc1CN1CCC(NC/C2=C/CCCCCC2)CC1`: 2510 nM; `CC1(C)[C@@H]2CC[C@@]1(C)[C@@H](NC1CCN(Cc3ccc(Cl)cc3F)CC1)C2` (relative stereo; 62): 631 nM.
In turn, `CC(=O)Nc1ccc(CN2CCC(N[C@@H]3C[C@H]4CC[C@]3(C)C4(C)C)CC2)cc1` (relative stereo) gave a Ki greater than 10000 nM.
On the same count and under the same terms, next, `CC12CC3CC(C)(CC(C1)C3NC1CCN(Cc3ccc(Cl)cc3F)CC1)C2` (stereo unspecified): 501 nM; `COc1ccc(CN2CCC(N[C@@H]3C[C@H]4CC[C@]3(C)C4(C)C)CC2)cc1` (relative stereo): 2000 nM; `CC1(C)C2CC[C@@]1(C)C(CNC1CCN(Cc3ccc(Cl)cc3F)CC1)C2` (mixture of isomers): 2000 nM.
Same read-out and setting: with `CC1(C)C2CC=C(CNC3CCN(Cc4ccc(Cl)cc4F)CC3)C1C2` (stereo unspecified) the figure was 3980 nM; with `O=C(Nc1ccc(Cl)cc1F)N1CCC(NC2C3CC4CC(C3)CC2C4)CC1` (stereo unspecified), greater than 10000 nM; with `COC(=O)c1ccc(CN2CCC(N[C@@H]3C[C@H]4CC[C@]3(C)C4(C)C)CC2)cc1`, 3160 nM.
The same measure, in the same setting: with `CC1(C)[C@@H]2CC[C@@]1(C)[C@H](NC1CCN(Cc3c(F)c(F)c(F)c(F)c3F)CC1)C2` (relative stereo) the figure was 501 nM; with `Fc1cc(Cl)ccc1CN1CCC(N2CCc3ccccc3C2)CC1`, 5010 nM.
Molecule `CN(C1CCN(Cc2ccc(Cl)cc2F)CC1)C1C2CC3CC(C2)CC1C3` (stereo unspecified) had a Ki of 1260 nM. This Ki lies about 4-fold lower than the previous one.
Still for that read-out and setting: with `CC1(C)[C@@H]2CC[C@@]1(C)[C@H](NC1CCN(Cc3ccc(F)c(C(F)(F)F)c3)CC1)C2` (relative stereo) the figure was 2510 nM; with `Fc1cc(Cl)ccc1CN1CCC(NCC2CCCCC2)CC1`, 3980 nM.
Same read-out and setting: next, `CC(c1ccc(Cl)cc1F)N1CCC(NC2C3CC4CC(C3)CC2C4)CC1` (stereo unspecified): 5010 nM; `Fc1cc(Cl)ccc1CN1CCC(NCC23CC4CC(CC(C4)C2)C3)CC1`: 501 nM.
Same read-out and setting: with `CN(CC1C2CC3CC(C2)CC1C3)C1CCN(Cc2ccc(Cl)cc2F)CC1` (stereo unspecified) the figure was 2510 nM.
`CC1(C)[C@@H]2CC[C@@]1(C)[C@H](NC1CCN(Cc3cc(F)cc(C(F)(F)F)c3)CC1)C2` (relative stereo) showed a Ki of 3980 nM. Against the preceding molecule, the Ki is about 1.6-fold higher.
The same measure, in the same setting: with `c1ccc(CN2CCC(NC3C4CC5CC(C4)CC3C5)CC2)cc1` (stereo unspecified) the figure was 3980 nM.
For `CC1(C)[C@@H]2CC[C@@]1(C)[C@@H](NC1CCN(Cc3ccc(Cl)cc3F)CC1)C2` (relative stereo; 60), the Ki was 398 nM.
`Fc1cc(Cl)ccc1CN1CCC(CNC2C3CC4CC(C3)CC2C4)CC1` (stereo unspecified) showed a Ki of 3980 nM.
On the same count and under the same terms, with `CC1(C)[C@@H]2CC[C@@]1(C)[C@H](NC1CCN(Cc3ccc(Cl)cc3)CC1)C2` (relative stereo) the figure was 501 nM; with `CCNC(=O)c1cnc(N2CCN(C3CCN(Cc4ccc(Cl)cc4)CC3)[C@@H](CC)C2)c(Cl)c1`, 3.16 nM; with `Fc1cc(Cl)ccc1CN1CCC(NC2C3CC4CC2CN(C4)C3)CC1` (stereo unspecified), 7940 nM.
Same read-out and setting: next, `CC1(C)[C@@H]2CC[C@@]1(C)[C@H](NC1CCN(Cc3ccco3)CC1)C2` (relative stereo): 6310 nM.
On the same count and under the same terms, next, `CN(C1CCN(Cc2ccc(Cl)cc2F)CC1)[C@@H]1C[C@H]2CC[C@]1(C)C2(C)C` (relative stereo): 1580 nM.
Consider `Fc1cc(Cl)ccc1CN1CCC(NCC2C3CC4CC(C3)CC2C4)CC1` (stereo unspecified), for which the affinity corresponds to a Ki of 1000 nM.
Same read-out and setting: with `Fc1cc(Cl)ccc1CN1CCC(N2CCCC2)CC1` the figure was greater than 10000 nM.
On the same count and under the same terms, with `COc1ccccc1CN1CCC(N[C@@H]2C[C@H]3CC[C@]2(C)C3(C)C)CC1` (relative stereo) the figure was 10000 nM; with `CC1(C)[C@@H]2CC[C@@]1(C)[C@H](NC1CCN(Cc3ccccc3)CC1)C2` (relative stereo), 2510 nM; with `CC1(C)[C@@H]2CC[C@@]1(C)[C@H](NC1CCN(Cc3ccc(OC(F)(F)F)cc3)CC1)C2` (relative stereo), 794 nM.
The same measure, in the same setting: next, `Fc1cc(Cl)ccc1CN1CCC(NCCC(c2ccccc2)c2ccccc2)CC1`: greater than 100000 nM; `CC1(C)[C@@H]2CC[C@@]1(C)[C@H](NC1CCN(Cc3cccnc3)CC1)C2` (relative stereo): greater than 10000 nM.
`COc1ccc(CN2CCC(N[C@@H]3C[C@H]4CC[C@]3(C)C4(C)C)CC2)c(F)c1` showed a Ki of 1580 nM. That is a single-digit micromolar value.
Same read-out and setting: next, `Fc1cc(Cl)ccc1CN1CCCN(C2C3CC4CC(C3)CC2C4)CC1` (stereo unspecified): 1580 nM; `CC1(C)[C@@H]2CC[C@@]1(C)[C@H](NC1CCN(Cc3ccc(F)cc3F)CC1)C2` (relative stereo): 2000 nM.
Same read-out and setting: next, `CC1(C)[C@@H]2CC[C@@]1(C)[C@H](NC1CCN(Cc3ccccc3F)CC1)C2` (relative stereo): 6310 nM; `CCOC(=O)C1=C(NC2C3CC4CC(C3)CC2C4)CCN(Cc2ccc(Cl)cc2F)C1` (stereo unspecified): 5010 nM.
The molecule `CN(C)c1ccc(CN2CCC(N[C@@H]3C[C@H]4CC[C@]3(C)C4(C)C)CC2)cc1` (relative stereo) showed a Ki of 3980 nM. This Ki and that of the molecule before are within 1.5-fold of each other.
Regarding `CN(C1CCN(Cc2ccc(Cl)cc2F)CC1)[C@H]1C[C@H]2CC[C@]1(C)C2(C)C` (relative stereo), the inhibition constant Ki is 1260 nM.
Same read-out and setting: next, `Clc1ccc(CN2CCC(NC34CC5CC(CC(C5)C3)C4)CC2)cc1`: 1000 nM; `Fc1cc(Cl)ccc1CN1CCCC(NC2C3CC4CC(C3)CC2C4)C1` (stereo unspecified): 2000 nM; `Clc1ccc(CN2CCC(NC3C4CC5CC(C4)CC3C5)CC2)cc1` (stereo unspecified): 398 nM.
Still for that read-out and setting: next, `CCOC(=O)C1CN(Cc2ccc(Cl)cc2F)CCC1NC1C2CC3CC(C2)CC1C3` (single isomer, unassigned): 3980 nM; `COc1cccc(CN2CCC(N[C@@H]3C[C@H]4CC[C@]3(C)C4(C)C)CC2)c1` (relative stereo): 7940 nM.
Consider `CCOC(=O)C1CN(Cc2ccc(Cl)cc2F)CCC1NC1C2CC3CC(C2)CC1C3` (stereo in doubt; 32), for which the Ki was 5010 nM.
The molecule `CC1(C)[C@@H]2CC[C@@]1(C)[C@H](NC1CCN(Cc3ccc(N=[N+]=[N-])cc3)CC1)C2` (relative stereo) showed a Ki of 794 nM.
Same read-out and setting: next, `Fc1cc(Cl)ccc1CN1CCC(NC2CCCCC2)CC1`: 5010 nM.

The values are drawn from ChEMBL document CHEMBL1153993, “Exploring a pocket for polycycloaliphatic groups in the CXCR3 receptor with the aid of a modular synthetic strategy” (Bioorg Med Chem Lett, 2009).
